Each molecule was assayed against T1, CDK1/Cyclin B (Homo sapiens, UniProt P06493) (assay: Enzymatic assay for CDK1 (FRET based LANCE Ultra kinase assay)). Conditions: read-out: CDK1 enzymatic activity (IC50 range).
T1 construct: purchased Invitrogen PR4768C
Type: biochemical
Method in brief: (§1)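 Each CDK complex ([…]) phosphorylated 68 nM ULight-MBP peptide with ATP at Km for 60 min at 23° C., against 8 compound doses (4-fold dilutions). EDTA/Eu-anti-phospho-MBP detection, 60 min, then TR-FRET emission at 615 and 665 nm.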

T1 sequence (P06493 whole entry): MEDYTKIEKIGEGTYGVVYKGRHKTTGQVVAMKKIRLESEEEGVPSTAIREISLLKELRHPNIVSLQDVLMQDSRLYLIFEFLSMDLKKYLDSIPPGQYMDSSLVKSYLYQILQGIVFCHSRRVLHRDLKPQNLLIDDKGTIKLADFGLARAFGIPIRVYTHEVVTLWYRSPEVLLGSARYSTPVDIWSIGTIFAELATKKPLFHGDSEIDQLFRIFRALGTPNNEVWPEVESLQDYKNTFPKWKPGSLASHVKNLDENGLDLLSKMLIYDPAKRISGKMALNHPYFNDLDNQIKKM
T1 sequence (P14635 whole entry partner): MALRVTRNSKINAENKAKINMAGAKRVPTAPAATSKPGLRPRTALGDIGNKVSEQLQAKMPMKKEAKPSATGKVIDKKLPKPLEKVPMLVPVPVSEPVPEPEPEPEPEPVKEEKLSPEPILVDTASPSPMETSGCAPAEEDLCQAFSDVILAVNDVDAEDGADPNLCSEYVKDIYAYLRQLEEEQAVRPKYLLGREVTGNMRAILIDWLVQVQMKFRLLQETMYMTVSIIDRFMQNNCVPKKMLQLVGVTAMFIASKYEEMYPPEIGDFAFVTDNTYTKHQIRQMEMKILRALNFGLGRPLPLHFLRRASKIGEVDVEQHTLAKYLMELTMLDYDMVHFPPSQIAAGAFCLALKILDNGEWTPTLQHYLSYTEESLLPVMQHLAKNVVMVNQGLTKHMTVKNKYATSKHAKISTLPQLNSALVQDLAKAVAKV

| IC50 [nM] | SMILES |
| --- | --- |
| > 1000 | CC(C)c1cnn2c(NCc3c(O)cccc3-c3cc4ccccc4[nH]3)nc(N3CCC(N)CC3)nc12 [Compound 185] |
| > 1000 | CC(C)c1cnn2c(NCc3c(Cl)cccc3-n3ccc(C(C)(C)O)n3)nc(N3CCC(O)(CN)CC3)nc12 [Compound 238] |
| > 1000 | CC(C)c1cnn2c(NCc3c(Cl)cccc3-c3cccc(C(C)(C)O)n3)nc(N3CCC(N)CC3)nc12 [Compound 241] |

These molecules were tested against T2, CDK2/Cyclin A (Homo sapiens, UniProt P24941) (assay: Enzymatic assay for CDK2 (FRET based LANCE Ultra kinase assay)). Conditions: read-out: CDK2 enzymatic activity (IC50 range).
T2 construct: purchased Invitrogen PV6290
Type: biochemical
Method in brief: as §1

| IC50 [nM] | SMILES |
| --- | --- |
| > 1000 | CC(C)c1cnn2c(NCc3c(O)cccc3-c3cc4ccccc4[nH]3)nc(N3CCC(N)CC3)nc12 [Compound 185] |
| > 1000 | CC(C)c1cnn2c(NCc3c(Cl)cccc3-n3ccc(C(C)(C)O)n3)nc(N3CCC(O)(CN)CC3)nc12 [Compound 238] |
| > 1000 | CC(C)c1cnn2c(NCc3c(Cl)cccc3-c3cccc(C(C)(C)O)n3)nc(N3CCC(N)CC3)nc12 [Compound 241] |

What follows are molecules tested against T3, CDK5/p25 (Homo sapiens, UniProt Q00535) (assay: Enzymatic assay for CDK5 (FRET based LANCE Ultra kinase assay)). Conditions: read-out: CDK5 enzymatic activity (IC50 range).
T3 construct: purchased Invitrogen PR8543B
Type: biochemical
Method in brief: as §1

T3 sequence (Q00535 whole entry): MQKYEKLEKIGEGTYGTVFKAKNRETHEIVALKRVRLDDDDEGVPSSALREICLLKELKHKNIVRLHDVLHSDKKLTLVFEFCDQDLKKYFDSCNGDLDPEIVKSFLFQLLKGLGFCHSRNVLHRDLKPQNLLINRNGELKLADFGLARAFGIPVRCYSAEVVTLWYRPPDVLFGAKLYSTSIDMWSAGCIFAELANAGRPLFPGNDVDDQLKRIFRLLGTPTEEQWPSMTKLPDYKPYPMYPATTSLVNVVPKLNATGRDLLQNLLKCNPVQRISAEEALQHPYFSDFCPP
T3 sequence (Q15078 99-307 partner limits assumed): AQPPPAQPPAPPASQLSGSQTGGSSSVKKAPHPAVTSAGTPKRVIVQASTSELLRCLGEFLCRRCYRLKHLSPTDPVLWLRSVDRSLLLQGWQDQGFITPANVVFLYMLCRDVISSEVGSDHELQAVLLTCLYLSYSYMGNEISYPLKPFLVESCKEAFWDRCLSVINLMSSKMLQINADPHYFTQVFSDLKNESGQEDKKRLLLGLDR

| IC50 [nM] | SMILES |
| --- | --- |
| > 1000 | CC(C)c1cnn2c(NCc3c(O)cccc3-c3cc4ccccc4[nH]3)nc(N3CCC(N)CC3)nc12 [Compound 185] |
| > 1000 | CC(C)c1cnn2c(NCc3c(Cl)cccc3-n3ccc(C(C)(C)O)n3)nc(N3CCC(O)(CN)CC3)nc12 [Compound 238] |
| > 1000 | CC(C)c1cnn2c(NCc3c(Cl)cccc3-c3cccc(C(C)(C)O)n3)nc(N3CCC(N)CC3)nc12 [Compound 241] |

What follows are molecules tested against T4, CDK7/Cyclin H/MNAT1 (Homo sapiens, UniProt P50613) (assay: Enzymatic assay for CDK7 (FRET based LANCE Ultra kinase assay)). Conditions: CDK7 over CDK1.
T4 construct: purchased Invitrogen PR6749B
Type: biochemical
Method in brief: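 LANCE Ultra TR-FRET kinase assay using a ULight-labeled peptide substrate and a Eu-labeled anti-phospho antibody, with ATP at its Km. Purified CDK/cyclin complex was added to compound after brief centrifugation.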

T4 sequence (P50613 whole entry): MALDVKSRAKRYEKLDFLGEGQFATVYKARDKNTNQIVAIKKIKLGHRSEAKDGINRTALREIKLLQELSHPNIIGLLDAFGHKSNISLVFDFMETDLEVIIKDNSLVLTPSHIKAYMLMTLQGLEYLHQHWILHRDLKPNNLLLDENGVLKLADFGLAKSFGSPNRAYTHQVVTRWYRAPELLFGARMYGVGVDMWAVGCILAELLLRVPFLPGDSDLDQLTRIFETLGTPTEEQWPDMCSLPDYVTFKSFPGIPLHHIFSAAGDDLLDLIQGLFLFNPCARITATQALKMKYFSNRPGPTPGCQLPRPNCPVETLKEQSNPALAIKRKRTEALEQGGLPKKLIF
T4 sequence (P51946 whole entry partner): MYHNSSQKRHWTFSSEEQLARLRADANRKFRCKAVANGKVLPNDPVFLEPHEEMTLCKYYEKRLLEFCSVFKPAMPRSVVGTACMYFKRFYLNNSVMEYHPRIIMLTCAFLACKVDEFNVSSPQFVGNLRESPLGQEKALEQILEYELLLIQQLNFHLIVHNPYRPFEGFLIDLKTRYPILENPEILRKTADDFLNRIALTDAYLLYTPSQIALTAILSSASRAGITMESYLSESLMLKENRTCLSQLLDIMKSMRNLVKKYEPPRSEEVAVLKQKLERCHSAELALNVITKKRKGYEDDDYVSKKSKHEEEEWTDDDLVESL
T4 sequence (P51948 whole entry partner): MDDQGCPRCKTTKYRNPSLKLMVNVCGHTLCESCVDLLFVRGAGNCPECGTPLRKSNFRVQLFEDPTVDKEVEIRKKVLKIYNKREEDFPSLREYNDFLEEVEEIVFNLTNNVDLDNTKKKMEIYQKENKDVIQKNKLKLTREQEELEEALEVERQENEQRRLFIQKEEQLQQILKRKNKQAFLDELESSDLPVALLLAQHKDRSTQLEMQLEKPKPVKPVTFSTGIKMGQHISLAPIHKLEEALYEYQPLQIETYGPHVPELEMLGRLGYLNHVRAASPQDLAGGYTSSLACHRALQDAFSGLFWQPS

| CDK1/CDK7: Selectivity of CDK7 inhibition over CDK1 inhibition | SMILES |
| --- | --- |
| A (A=greater than 200 fold) | CC(C)c1cnn2c(NCc3c(O)cccc3-c3cc4ccccc4[nH]3)nc(N3CCC(N)CC3)nc12 [Compound 185] |
| A (A=greater than 200 fold) | CC(C)c1cnn2c(NCc3c(Cl)cccc3-n3ccc(C(C)(C)O)n3)nc(N3CCC(O)(CN)CC3)nc12 [Compound 238] |
| A (A=greater than 200 fold) | CC(C)c1cnn2c(NCc3c(Cl)cccc3-c3cccc(C(C)(C)O)n3)nc(N3CCC(N)CC3)nc12 [Compound 241] |

Same assay, conditions: CDK7 over CDK2

| CDK2/CDK7: Selectivity of CDK7 inhibition over CDK2 inhibition | SMILES |
| --- | --- |
| A (A=greater than 200 fold) | CC(C)c1cnn2c(NCc3c(O)cccc3-c3cc4ccccc4[nH]3)nc(N3CCC(N)CC3)nc12 [Compound 185] |
| A (A=greater than 200 fold) | CC(C)c1cnn2c(NCc3c(Cl)cccc3-n3ccc(C(C)(C)O)n3)nc(N3CCC(O)(CN)CC3)nc12 [Compound 238] |
| A (A=greater than 200 fold) | CC(C)c1cnn2c(NCc3c(Cl)cccc3-c3cccc(C(C)(C)O)n3)nc(N3CCC(N)CC3)nc12 [Compound 241] |

Same assay, conditions: CDK7 over CDK5

| SMILES | CDK5/CDK7: Selectivity of CDK7 inhibition over CDK5 inhibition |
| --- | --- |
| CC(C)c1cnn2c(NCc3c(O)cccc3-c3cc4ccccc4[nH]3)nc(N3CCC(N)CC3)nc12 [Compound 185] | B (B=less than 200 fold, but greater than 20 fold) |
| CC(C)c1cnn2c(NCc3c(Cl)cccc3-n3ccc(C(C)(C)O)n3)nc(N3CCC(O)(CN)CC3)nc12 [Compound 238] | A (A=greater than 200 fold) |
| CC(C)c1cnn2c(NCc3c(Cl)cccc3-c3cccc(C(C)(C)O)n3)nc(N3CCC(N)CC3)nc12 [Compound 241] | B (B=less than 200 fold, but greater than 20 fold) |

Same assay, conditions: read-out: CDK7 enzymatic activity (IC50 range)

| IC50 [nM] | SMILES |
| --- | --- |
| < 100 | CC(C)c1cnn2c(NCc3c(O)cccc3-c3cc4ccccc4[nH]3)nc(N3CCC(N)CC3)nc12 [Compound 185] |
| < 100 | CC(C)c1cnn2c(NCc3c(Cl)cccc3-n3ccc(C(C)(C)O)n3)nc(N3CCC(O)(CN)CC3)nc12 [Compound 238] |
| < 100 | CC(C)c1cnn2c(NCc3c(Cl)cccc3-c3cccc(C(C)(C)O)n3)nc(N3CCC(N)CC3)nc12 [Compound 241] |

Each molecule was assayed on HCT116 (assay: Cellular HCT116 viability assay (CellTiter-Glo, 72 hours)). Conditions: Homo sapiens, HCT-116.
Type: cell-based
Method in brief: (§2)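 72 h treatment, 37 °C, 5% CO2; DMSO ctrl, final <0.1%; CellTiter-Glo luminescence; n=2.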

| IC50 [nM] | SMILES |
| --- | --- |
| < 1000 | CC(C)c1cnn2c(NCc3c(Cl)cccc3-n3ccc(C(C)(C)O)n3)nc(N3CCC(O)(CN)CC3)nc12 [Compound 238] |
| < 1000 | CC(C)c1cnn2c(NCc3c(Cl)cccc3-c3cccc(C(C)(C)O)n3)nc(N3CCC(N)CC3)nc12 [Compound 241] |

What follows are molecules tested on H460 (assay: Cellular H460 viability assay (CellTiter-Glo, 72 hours)). Conditions: Homo sapiens, NCI-H460.
Type: cell-based
Method in brief: as §2

| IC50 [nM] | SMILES |
| --- | --- |
| 1000 to 10000 | CC(C)c1cnn2c(NCc3c(O)cccc3-c3cc4ccccc4[nH]3)nc(N3CCC(N)CC3)nc12 [Compound 185] |
| < 1000 | CC(C)c1cnn2c(NCc3c(Cl)cccc3-n3ccc(C(C)(C)O)n3)nc(N3CCC(O)(CN)CC3)nc12 [Compound 238] |
| < 1000 | CC(C)c1cnn2c(NCc3c(Cl)cccc3-c3cccc(C(C)(C)O)n3)nc(N3CCC(N)CC3)nc12 [Compound 241] |

The molecules below were run on MM.1S (assay: Cellular MM.1S viability assay (CellTiter-Glo, 72 hours)). Conditions: Homo sapiens, MM1.S.
Type: cell-based
Text: Human T-cell acute lymphoblastic leukemia cell line, MOLT-4 (ATCC, Cat #CRL-1582), Human multiple myeloma cell line, RPMI-8226 (Invitrogen, Cat #22400-089) and MM.1S (ATCC, Cat #CRL-2974), NSCLC (Non-small cell lung cancer) cell line H460 (ATCC, Cat #HTB-177), Human colon colorectal carcinoma cell line HCT116 (ATCC, Cat #CCL-247), Human acute monocytic leukemia cell line MV4-11 (ATCC, Cat #CRL-9591), OVCAR-3 (ATCC, Cat #HTB-161) and A2780 (ECACC, Cat #93112519) were obtained from ATCC. Cells were grown in RPMI-1640 media (Invitrogen, Cat #22400-089) supplemented with 10% FBS (Invitrogen, Cat #10099141) and 1% penicillin/streptomycin (Invitrogen, Cat #15070063) and cultured at 37° C., 5% CO2 in a humidified chamber. All cell lines were routinely tested for mycoplasma.
The effect of the CDK7 inhibitor to inhibit the growth of target cancer cells was evaluated through the 72 hours time period of viability assay. Briefly, the candidate cell line ware plated in 96 well plate at the following density of cells respectively. 1×10^4 cells/well for MOLT-4, RPMI-8226, MV4-11 and MM.1S, 5×10^3 for H460, HCT116 and OVCAR-3 and IX 10^3 for A2780. After 24 hours, the cells were treated with various concentrations of the compound (ranging from 0.0015 uM to 10 uM). DMSO solvent without compound served as a control and final DMSO concentration less than 0.1%. After 72 hours of incubation at 37° C., 5% CO2 incubator, cells were analyzed for the viability using the CellTiter-Glo Luminescent Cell Viability Assay (Promega, Cat #G7570). All viability assays were performed in duplicate and Luminescence was read using an Envision (Perkin Elmer, USA). Data was analyzed using XLfit software.

| IC50 [nM] | SMILES |
| --- | --- |
| 1000 to 10000 | CC(C)c1cnn2c(NCc3c(O)cccc3-c3cc4ccccc4[nH]3)nc(N3CCC(N)CC3)nc12 [Compound 185] |

Each molecule was assayed on MV4-11 (assay: Cellular MV4-11 viability assay (CellTiter-Glo, 72 hours)). Conditions: Homo sapiens.
Type: cell-based
Method in brief: as §2

| IC50 [nM] | SMILES |
| --- | --- |
| 1000 to 10000 | CC(C)c1cnn2c(NCc3c(O)cccc3-c3cc4ccccc4[nH]3)nc(N3CCC(N)CC3)nc12 [Compound 185] |
| < 1000 | CC(C)c1cnn2c(NCc3c(Cl)cccc3-n3ccc(C(C)(C)O)n3)nc(N3CCC(O)(CN)CC3)nc12 [Compound 238] |
| < 1000 | CC(C)c1cnn2c(NCc3c(Cl)cccc3-c3cccc(C(C)(C)O)n3)nc(N3CCC(N)CC3)nc12 [Compound 241] |

The molecules below were run on A2780 (assay: Cellular A2780 viability assay (CellTiter-Glo, 72 hours)). Conditions: Homo sapiens.
Type: cell-based
Method in brief: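 Cells seeded at 1×10^4/well (MM.1S), 5×10^3 (OVCAR-3) or 1×10^3 (A2780), grown in RPMI-1640 with 10% FBS. After 24 h, compound added at 0.0015–10 uM, final DMSO below 0.1%, for 72 h at 37° C. Viability read by CellTiter-Glo luminescence in duplicate, with curve fitting.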

| IC50 [nM] | SMILES |
| --- | --- |
| ≤ 1000 | CC(C)c1cnn2c(NCc3c(Cl)cccc3-n3ccc(C(C)(C)O)n3)nc(N3CCC(O)(CN)CC3)nc12 [Compound 238] |
| ≤ 1000 | CC(C)c1cnn2c(NCc3c(Cl)cccc3-c3cccc(C(C)(C)O)n3)nc(N3CCC(N)CC3)nc12 [Compound 241] |

— patent publication US11945822B2, “Pyrazolo-triazine and/or pyrazolo-pxrimidine derivatives as selective inhibitor of cyclin dependent kinase” (QURIENT CO., LTD., priority 2018, dated 2024)
